The test system of this test is Normal human adipocytes. As to the kind of experiment: Assessment of lipid synthesis in adipocytes in suspension (anti-cellulitis efficacy test). The note with it: radioactively labelled acetate (2-C14) into lipids, versus comparative sample. Format: cell-based. The procedure: Normal human adipocytes are isolated starting from biopsies (plastic surgery). Immediately after receipt, the samples are incubated for 30 min at 37° C. in the presence of collagenase (supplied by Sigma). The suspension of adipocytes is then rinsed and diluted three-fold in the culture medium, The culture medium is formed, for example, from the following: • 1.87 mg/ml of bicarbonate (supplied by Life Technologies), • 25 IU/ml/25 μg/ml of penicillin/streptomycin (supplied by Life Technologies), • 2 mM of glutamine (supplied by Life Technologies), • 100% (vol./vol.) MEM (supplied by Merck Eurolab) and • 0.5% (wt./vol.) bovine albumin (supplied by Sigma).
The adipocytes in suspension are incubated for 4 h at 37° C. in the presence of various concentrations of a compound of the formula I. […]
After incubation for 4 h, the lipids are extracted by the procedure described by Bligh and Dyer, Can. J. Biochem. Physiol., 37, 922 (1959), evaporation is carried out under nitrogen, and the introduced radioactivity is quantified by liquid scintillation (reference liquid scintillation instrument LKB 1210, supplied by Rackbeta).
Any interaction between the radioactively labelled acetate and a compound of the formula I is evaluated in order to confirm the specificity of the labelling by incubating the highest concentration of the compound of the formula I with acetate alone.

As for `C/C=C/C/C=C/CCC(=O)[C@H]1O[C@H]1C(N)=O` [Cerulin], the “inhibition of the incorporation of acetate” value turned out to be 95%.

The values are drawn from patent US20100028278A1, “USE OF CHROMAN-4-ONE DERIVATIVES” (Merck Patent Gesellschaft MIT Beschrankter Haftung, priority 2007, published 2010).
